The source of these data is patent US9981037B2, “Combination therapy of beta-glycolipids and antibodies for the treatment of immune-related disorders” (HADASIT MEDICAL RESEARCH SERVICES AND DEVELOPMENT LTD., priority 2008, dated 2018).

The test system of one data set is MLN cells. Kind of data set: Cytokine production (ELISA) by MLN cells or splenocytes of fed ob/ob mice stimulated in vitro with anti-CD3. The data set is classed as in vivo. As to conditions: in vitro 1 μg/ml anti-CD3 stimulation; vs PBS. As for the experimental part:
For cytokine assays, splenocytes or MLN cells were grown (10^6 cells per well) in serum-free medium X-VIVO 20 (BioWhittaker) with 1 ug/ml soluble anti-CD3 antibody. Supernatants were collected after 40 h for IL-2, IL-4, IL6, IL-10, IFN-γ, and IL-17, or after 72 h for TGF-β and quantitative ELISA was performed using paired antibodies and recombinant cytokines obtained from PharMingen according to their recommendations. When purified T-cells ([…] cells per well) were checked for cytokine secretion, they were stimulated with 1 ug/ml anti-CD3 in the presence of DCs (10×10^3 cells per well) for 40 or 72 h and the cytokine content in the supernatant was measured as outlined above. The tissue cytokine profile was determined for gut, liver, and pancreas. Part of the organ was weighed and homogenized on ice with TISSUEMISER (Fisher Scientific) in buffer containing PBS/BSA/TWEEN and protein inhibitor tablets (Roche). […]
To investigate the potential mechanisms by which oral combination of anti-CD3 plus GC affected the metabolic abnormalities describe above, the inventors next measured cytokine production by MLN cells obtained from the different experimental groups, that were then stimulated in vitro with 1 μg/ml anti-CD3 for five days. […] The inventors next measured cytokine levels in supernatants from homogenized tissues from ob/ob treated mice. […]
(In an ELISA, binding on a coated surface is turned into a signal by an enzyme label.)

The next data set has as its system DCs from MLN. Kind of data set: TGF-β and IL-10 expression in CD11C+ DCs from MLN by RT PCR. Conditions: RT PCR relative to GAPDH; 3 days after feeding; reversed by anti-TGF-β. It counts as in vivo, mice. As to the method: MLN CD11C+ DCs were isolated by magnetic separation using anti CD11C microbeads (Miltenyi Biotec). Total RNA was isolated from cell pellets using the RNA easy Mini Kit (QIAGEN) and stored at −80° C. First strand cDNA synthesis was performed on 0.5-1 μg of total RNA for each RNA sample using Taqman reverse transcription reagents. The cDNA was amplified using sequence specific primers for IL-10, and TGF-β and real-time PCR mix (Applied Biosystems) in an ABI7500 cycler. The GAPDH gene was used as an endogenous control to normalize for differences in the amount of total RNA in each sample. All values were expressed as a fold increase or decrease relative to the expression of GAPDH.
To investigate the effect of feeding the anti-CD3 plus GC combination on DCs, the inventors first measured the expression of TGF-β and IL-10 in DCs from MLN. […] Injection of anti-TGF-β reversed the effect. The inventors then investigated the effect of DCs obtained from animals treated with the oral combination of anti-CD3 plus GC, or from the control PBS treated animals, on T-cells harvested from mice fed either with PBS or with the combination of anti-CD3 plus GC. T cells were stimulated with anti-CD3 in vitro. […]

Data set [1] has as its system ob/ob mice. Kind of data set: Metabolic syndrome model in ob/ob mice: serum glucose, AST, ALT, cholesterol, weight after oral feeding. The data set is classed as in vivo. As for the experimental part:
Mice were fed a total volume of 0.2 ml by gastric intubation with an 18-gauge stainless steel feeding needle (Thomas Scientific). Mice were fed once a day for five consecutive days with either phosphate-buffered saline (PBS), hamster isotype control (IC 5 μg/feeding), anti CD3 antibody (5 ug/feeding), or β-glucosylceramide (GC), 100 μg/feeding (dissolved in ethanol and emulsified in PBS). Mice fed with the combination of anti-CD3 and GC received 5 ug anti-CD3 and 100 ug GC in 0.2 ml PBS. Mice were injected IP with 100 μg anti TGF-β one day before the feeding and than on alternative days another 4 injections, a total of 500 μg.
Sera from individual mice were obtained. Serum AST and ALT levels were measured by an automatic analyzer.
In order to investigate the potential effect of combining two different immune-modulatory compounds on an immune-related disorder such as the metabolic syndrome, the ob/ob leptin deficient mice that manifest insulin resistance, hypelipidemia, fatty liver, and diabetes, were used as an animal model.
Four groups of ob/ob mice were tested, groups 1 and 2 served as control groups (group of untreated mice and group of mice treated with GC and Isotype Control, respectively), group 3 were treated with anti CD3 (5 microgram) antibody and group 4 were orally administered with a combination of anti-CD3 (5 μg) antibody and β-glucosylceramide (GC, 100 μg) per dose for five consecutive days. Animals were assessed on days 10 and 28. The doses studied were based on previous studies of anti-CD3 and GC in animal models [Ochi, H., et al. Nat. Med. 12:627-635 (2006); Zigmond, E. et al. Gut 56:82-89 (2007); Ilan, Y. et al. Transplantation 83:458-467 (2007)]. Determination of hepatic fat content and inflammation was performed by measurement of serum Alanine aminotransferase (ALT) and Aspartate aminotransferase (AST) levels. Serum glucose and cholesterol levels were also assessed.

The test system of data set [2] is ob/ob mice. Kind of data set: Pathologic analysis of pancreas, liver and muscle of ob/ob mice. Conditions: vs PBS. It counts as in vivo. As to the method: The liver, pancreas, and muscle were removed from control or treated mice and placed in 4% formalin followed by paraffin embedding. Five sections were prepared from each organ. The tissues were stained for heamtoxylin eosin and liver sections were additionally stained with oil-red-o. All sections were blindly scored by a pathologist.
The inventors next investigated the beneficial effect of the combined oral composition of anti-CD3 plus GC treatment of ob/ob mice by pathologic analysis of pancreas, liver and muscle. […] In addition, a reversal of muscle fiber thinning and increased nuclei was clearly observed in animals treated with the oral combination of anti-CD3 plus GC.

With β-glucosylceramide [GC], in the data set with MLN cells, the “production of IL-10 by MLN cells” value was “No effects” and the “production of TGF-β by MLN cells” value is listed as “No effects”. In addition, in the data set on DCs from MLN, the “IL-10 expression in DCs from MLN” value was “not” and the “TGF-β expression in DCs from MLN” value is recorded as “not”. The weight of animals result in the data set on ob/ob mice [1] (compared to control) was “No change”. Besides, the “serum AST levels” value in the data set with ob/ob mice [1] (ob/ob mice fed daily for 5 days, 10 days after last feeding, PBS 416 U/l) amounted to 310 U/l. Further, in the data set on ob/ob mice [1] (ob/ob mice fed daily for 5 days, PBS 218 mg %), the Serum cholesterol levels turned out to be 225 mg %. In the data set on ob/ob mice [1] (ob/ob mice fed daily for 5 days, tested 10 days after last feeding, PBS 367 mg %), the blood glucose is reported as 337 mg %. Besides, in the data set with ob/ob mice [2], the hepatic fat accumulation result is “some effect” and the pancreatic hyperplasia result was “some effect”.
